From patent US20210355509A1, “ALTERNATIVE SPLICING REGULATION OF GENE EXPRESSION AND THERAPEUTIC METHODS” (THE CHILDREN'S HOSPITAL OF PHILADELPHIA, priority 2018, published 2021)

How the values were obtained:
[1] = test system: SMN2 minigene Exon 7; assay: SMN2 minigene PCR splicing assay with RG7800; assay type: cell-based, human; conditions: RG7800 10 nM, 100 nM, 1 μM and 10 μM; HEK293
Experimental: HEK293 cells were transfected with plasmids expressing the SMN2 minigene (0.3 μg) and 4 hours later treated with different doses of RG7800 (10 nM, 100 nM, 1 μM and 10 μM). 24 hours after transfection, RNA was harvested, DNAseI treated, and 1 μg of RNA was reverse transcribed to assess SMN2 minigene splicing using PCR. PCR products were separated on a 3% agarose gel and exon 7 production was quantified using the ChemiDoc Imaging System (Bio-Rad) and Imagine Lab analysis Software.

[2] = test system: HTT; assay: SMN2_CRISPRi regulated epigenetic silencing, Western blot; assay type: cell-based, human; conditions: RG7800 1 μM, HEK293 cells transfected with the SMN2_CRISPRi system
Experimental: (§1) HEK293 cells were transfected with plasmids encoding the CRISPRi silencing system (dCas9, sgRNA and MCP-Krab expression cassettes). Importantly, the dCas9 was cloned under the SMN2 splice regulated cassette to control dCas9 protein expression with RG7800. 24 hours after transfection, cells were selected using Puromicin (3 μM, 24 h), passaged onto a new plate, and treated with RG7800 (1 μM). HEK293 cells were lysed 36 h after RG7800 treatment using Passive lysis buffer (Promega, CA), and Huntingtin (HTT), Cas9 and Beta Catenin (Beta cat) protein levels were determined by Western Blot. Beta Catenin protein levels were determined as loading control. HTT, Cas9 and Beta Cat protein levels were quantified using the ChemiDoc Imaging System (Bio-Rad) and Imagine Lab analysis Software.

[3] = test system: Cas9; assay: SMN2_CRISPRi regulated Cas9 expression, Western blot; assay type: cell-based, human; conditions: RG7800 1 μM, HEK293 cells transfected with the SMN2_CRISPRi system
Experimental: as §1

[4] = test system: SMN2 exon 7; assay: SMN2/transactivator minigene exon 7 splicing, semi-quantitative RT-PCR; assay type: cell-based, human
Source text: FIGS. 4a-c show modified SMN2/transactivator minigenes express spliced RNA transcript isoforms to constitutively exclude (CSI3) or include (CSI5) exon7, influencing background expression of the optimized RNAi promoter. […] The 3′ and 5′ Exon7 splicing sites in the SMN2/transactivator minigene were modified to constitutively exclude (CSI3, 3′ modified) or include (CSI5, 5′ modified) exon 7.
FIGS. 5a-b show splicing and activity of CSI and CSI3 minigenes in response to LIM070.
To regulate transactivator expression, the transactivator was cloned downstream of a self-cleaving 2A peptide and the SMN2 minigene comprising exons 6-7 and the 5′ end of exon 8, and minimal intronic intervening sequences necessary to recapitulate SMN2 splicing^38 (FIG. 4a). Note that 10% of the transcripts include exon 7, similar to the native SMN2 genetic state. The transcripts produce transactivator that partially activates the RNAi expression cassette. Thus, the 3′ and 5′ Exon7 splicing sites in the SMN2/transactivator minigene were modified to constitutively exclude (CSI3, 3′ modified) or include (CSI5, 5′ modified) exon 7, which minimizes RNAi promoter background activation^39 (FIGS. 4b-c). […] Also, the entire cassette fits into rAAV.

[5] = test system: HEK293 cells; assay: De novo exon splicing in response to LMI070, RNA-seq and PCR validation; assay type: cell-based, human; conditions: LMI070 25 nM, PCR
Experimental: The following methods were used to obtain the data illustrated in FIGS. 8-15. […] 12 hours after treatment RNA was extracted using Trizol followed by DNAseI treatment. Samples were evaluated for quality control on agilent bioanalyzer and all samples had RIN values >9.8 and were sent for Illumina RiboZero Gold total RNA library preparation and sequencing with an Illumina HiSeq4000. A 150 bp Pair end sequencing reads were obtained from illumina sequencing. Fastq files obtained from the illumina platform were aligned to the Human genome GRCh38 using the STAR aligner. SAM format alignment files output from STAR were sorted, converted to BAM format and indexed using Samtools. To visualize splicing at any region in the alignment BAM files were opened in IGV and visualized using the Sashimi plot function.
To identify regions of interest which contained high levels of differential splicing a custom R program was created. […] These files contained the raw counts obtained at each splice junction as calculated during alignment by STAR. […] 1) Read input files into R. 2) Create unique position IDs for each row (splice site) in the dataset. […] 6) sort the extracted reads from highest to lowest by Mean counts value. […]
The following methods were used to obtain the data in FIG. 16. […] As observed on the PCR, PCR products of higher size were detected on samples treated with LM1070 (FIG. 16). […]

[6] = LMI070 pharmacokinetics in mice, oral; assay type: in vivo; conditions: 3 mg/Kg
[7] = mice, oral, 3 mg/Kg, serum; read-out: Cmax (maximum concentration); cited from earlier work
[8] = test system: SMN mouse model; conditions: cited from earlier work
[9] = test system: SMN2 exon 7; conditions: mouse brain; cited from earlier work

Structure (SMILES) | Exon 7 inclusion in the SMN2 minigene [1] | HTT expression levels reduced [2] | Cas9 protein levels [3] | exon 7 inclusion at brain-equivalent concentration ([4]; 120 nM, CSI and CSI3 minigenes (FIG. 5)) | exon 7 inclusion in response to LMI070 ([4]; HEK293 cells, CSI and CSI3 minigenes, 20 h after LMI070 treatment) | de novo exon splicing [5] | concentration in the brain [6] [nM] | Cmax [7] [nM] | minimal dose with therapeutic effects [8] [mg/kg] | maximum dose reported to increase SMN2 exon 7 inclusion [9] [mg/kg]
CCc1nc(C)cn2nc(-c3cc(=O)n4cc(C5CCN(C)CC5)cc(C)c4n3)cc12 [RG7800] | induction of Exon 7 inclusion | about 45% | increase | – | – | – | – | – | – | –
CC1(C)CC(Oc2ccc(-c3ccc(-c4cn[nH]c4)cc3O)nn2)CC(C)(C)N1 [LMI070] | – | – | – | induces exon 7 inclusion | dose-responsive | novel exons are included | 120 | 86 | 1 | 30
